Measurements as given in article PMC5750218, “Protein-inspired antibiotics active against vancomycin- and daptomycin-resistant bacteria” (Nature Communications, 2018).
Converted amounts (≈) assume the structure as drawn.

What was measured:
[1] = SPR membrane binding assay; conditions: L1 chip, DMPC / DMPG bilayers
Procedure: SPR experiments were performed using a BIAcore 3000 (GE Health) instrument with a Biacore vesicle capture L1 sensor chip. […] Small unilamellar vesicles (SUV) were prepared in phosphate buffered saline (PBS) (pH 7.4) by sonication and extrusion. […] PBS was then added into each flask to give a suspension, which was sonicated for 5 cycles of 5 min each. […] The SUVs were injected across the L1 sensor chip for 30 min at a flow rate of […] to form a supported lipid bilayer. The coverage of the lipid bilayer was determined from the extent of non-specific binding of bovine serum albumin (0.1 mg mL^-1 in PBS, 5 min injection). A series of concentrations of vancomycin and […] passed sequentially over the different phospholipid-containing flow cells at a flow rate of 30 μL min^-1 for 180 s. The amount of antibiotic bound at equilibrium just before the end of the injection was corrected by subtraction of the bulk-refractive index difference observed at the beginning and the end of each injection. After each injection cycle, the lipid surface was regenerated with 20 mM 3-[(3-cholamidopropyl)dimethylammonio]-1-propanesulfonate (CHAPS) and a fresh lipid bilayer was loaded as described above. All assays were carried out at 25 °C in triplicate. […]

MRSA = MRSA in 50% human serum / 50% MHB
Procedure: The compounds, along with standard antibiotics were serially diluted twofold across the wells of 96-well non-binding surface (NBS) polystyrene plates (Corning 3641). […] Standards ranged from 64 to 0.03 µg mL^−1 and compounds from 8 to 0.003 µg mL^−1 with final assay volumes of 100 µL per well. Gram-positive bacteria were cultured in Mueller Hinton broth (MHB) (Bactolaboratories, Cat. no. 211443) at 37 °C overnight. A sample of each culture was then diluted 40-fold in fresh MHB and incubated at 37 °C for 2–3 h. […] All the plates were covered and incubated at 37 °C for 24 h. MICs were the lowest concentration showing no visible growth.
The compounds, along with standard antibiotics, tested in BMD-MIC assay as above, in the presence of a mixture of 50% human serum (Sigma-Aldrich) and 50% MHB.

HEK293 cells = assay: Cytotoxicity MTT assay; format: cell-based, human
Outline: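 HepG2 and HEK293 cells, 1.5 × 10^4 per well in DMEM with 1% FBS, were allowed to attach for 24 h, then exposed 24 h at 37 °C to compounds at 100 µM to 0.046 µM in threefold steps. MTT (0.4 mg mL^−1) was added for 2 h, and formazan in DMSO was read at 570 nm. Viability is given as percent of control, corrected for a positive control.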

[2] = system: S. aureus (MRSA) ATCC 43300; assay: Resistance frequency assay; format: cell-based; conditions: Staphylococcus aureus; TSB 1% agarose, 0.002% Tween 80; read-out: Agarose plate MIC
Procedure: The resistance frequency for Compound 19 was determined following literature procedures[41], [42].
Compound 19 was prepared to 160 µg mL^−1 solution in water from the given stock solution of 1 mM concentration. Vancomycin was prepared to 1.28 mg mL^−1 solution in water.
Tryptic soy broth (TSB) with 1% agarose and 0.002% Tween 80 was maintained at 45 to 50 °C in a water bath. 160 mL of agarose was transferred to 200 mL glass bottle, maintaining the remaining agarose in the water bath. […] A volume of 80 mL of agarose sample [A] was plated in four petri plates (duplicates/condition—neat, 10^−1) with swirling to ensure that the bottom of the plate was coated equally. An additional 80 mL of fresh agarose was added to the remaining 80 mL of agarose [A] sample to achieve a twofold dilution to provide agarose sample [B]. Once again, 80 mL of agarose sample [B] was plated in four petri plates. […]
Bacteria were subcultured at 37 °C overnight with shaking at 220 rpm. […] Resultant separated visible colonies were counted; those colonies that grow together were not included to determine the titre of the culture. […]
The colonies were counted after 24 h. The resistance frequency is determined by dividing the number of colonies obtained on the plates containing the antibacterial agent by the number of cells plated.

[3] = system: S. aureus ATCC 43300 (MRSA); assay: Time kill assay; format: cell-based, Staphylococcus aureus
Procedure: S. aureus ATCC® 43300™ (MRSA) was cultured in MHB (BactoLaboratories, Cat. No 211443) at 37 °C overnight. A sample was then diluted 40-fold in fresh MHB and incubated at 37 °C for 2–3 h until the culture reached early exponential phase (OD600 of 0.2–0.4). Vancapticin 24 ([…] and 0.003 µg mL^−1) and vancomycin (4, 2, 1 and 0.5 µg mL^−1) were serially diluted twofold across the wells of 96-well microtitre plates (NBS, Corning 3641) with a final volume of 50 µL, then combined with 50 µL of bacterial inoculum (giving a final cell density of 5 × 10^5 CFU mL^−1) and incubated at 37 °C. Serial dilutions of the cultures were plated at each desired time point, using a multichannel pipette as follows: in row A of a 96-well plate, 50 µL of sterile activated charcoal suspension (25 mg mL^−1) was added, while 90 µL of 0.9% sterile saline per well was added to the other rows. At selected time-points, 50 µL aliquots were transferred from the time-kill assay plate to the first row containing the charcoal suspension and mixed well. […] The colonies in each spot were counted and used to calculate the number of viable CFU mL^−1 remaining in the original culture by considering the dilution factors (1:2 in charcoal, the serial dilution factor and the volume of the aliquot spotted).

CCCCCCCCCCCCCC(=O)N[C@@H](CCCCN)C(=O)N[C@@H](CCCCN)C(=O)N[C@@H](CCCCN)C(=O)N[C@@H](CCCCNC(=O)[C@H]1NC(=O)[C@H]2NC(=O)[C@H](NC(=O)[C@@H]3NC(=O)[C@H](CC(N)=O)NC(=O)[C@H](NC(=O)[C@@H](CC(C)C)NC)[C@H](O)c4ccc(c(Cl)c4)Oc4cc3cc(c4O[C@@H]3O[C@H](CO)[C@@H](O)[C@H](O)[C@H]3O[C@H]3C[C@](C)(N)[C@H](O)[C@H](C)O3)Oc3ccc(cc3Cl)[C@H]2O)c2ccc(O)c(c2)-c2c(O)cc(O)cc21)C(=O)O [Compound 17, nC13CO-KKK-K(Vancomycin)-OH]
Membrane association by SPR compared to vancomycin [1]: Increased membrane association

CN[C@H]1C(=O)N[C@@H]2Cc3ccc(cc3)Oc3cc4cc(c3O[C@@H]3O[C@H](C(=O)O)[C@@H](O)[C@H](O)[C@H]3NC(=O)CCCCCCCCC(C)C)Oc3ccc(cc3Cl)[C@@H](O)[C@@H]3NC(=O)[C@H](NC(=O)[C@@H]4NC(=O)[C@@H](NC2=O)c2cc(cc(O)c2Cl)Oc2cc1ccc2O)c1ccc(O)c(c1)-c1c(O[C@H]2O[C@H](CO)[C@@H](O)[C@H](O)[C@@H]2O)cc(O)cc1[C@@H](C(=O)NCCCN(C)C)NC3=O [Compound 3, Dalbavancin]
MIC +50% HS (MRSA): 8 µg/mL (≈ 4.4 µM) | CC50 (HEK293 cells): 73 µM

CN[C@H](CC(C)C)C(=O)N[C@H]1C(=O)N[C@@H](CC(N)=O)C(=O)N[C@H]2C(=O)N[C@H]3C(=O)N[C@H](C(=O)N[C@H](C(=O)O)c4cc(O)cc(O)c4-c4cc3ccc4O)[C@H](O)c3ccc(c(Cl)c3)Oc3cc2cc(c3O[C@@H]2O[C@H](CO)[C@@H](O)[C@H](O)[C@H]2O[C@H]2C[C@](C)(N)[C@H](O)[C@H](C)O2)Oc2ccc(cc2Cl)[C@H]1O [Compound 1, Vancomycin]
MIC [2]: 1 µg/mL (≈ 0.69 µM) | Bactericidal profile in time kill assay [3]: slowly bactericidal
